Source: patent publication US10278971B2, “Fluorocyclopentenylcytosine methods of use” (Rexahn Pharmaceuticals, Inc., priority 2015, dated 2019)

Columns and labels:
[1] = system: A2780 ovarian cancer cells and NSCLC cell lines; assay: Radiosensitizing effect, summary over cell lines; assay type: cell-based, human; settings: preincubation, pulse and fractionated irradiation
Procedure: Exponential growing A2780, SW1573, A549, H460 and SW1573/G-cells were exposed to 1 μM RX-3117 or untreated (control) for 24 h and irradiated with single doses γ-radiation (0-6 Gy) using a ^60Co source (Gammacell 200, Atomic Energy of Canada, Ltd). Subsequently, 500 cells/T25 flasks were plated and allowed to form colonies. After ten days colonies were fixed with 100% ethanol and stained with 10% Giemsa stain solution (Merck Chemicals BV, Amsterdam, the Netherlands) for colonies counting. Plating efficiency (PE) was calculated by dividing the number of colonies formed through the number of cells plated and normalized for cytotoxicity induced by control. To illustrate the effect of RX-3117 on radiation, dose modifying factor (DMF) was calculated as described earlier (Bijnsdorp I V, van den Berg J, Kuipers G K, Wedekind L E, Slotman B J, van Rijn J, Lafleur M V M and Sminia P: Radiosensitizing potential of the selective cyclooygenase-2 (COX-2) inhibitor meloxicam on human glioma cells. J Neurooncol 85: 25-31, 2007).

[2] = Open-label dose-ranging study: pharmacokinetics, safety and tolerability of oral doses; assay type: in vivo, human; settings: for AUC(0-t): AUC0-24
Procedure: In an open-label, dose-ranging study, the pharmacokinetics (PK) of RX-3117 at various oral doses was evaluated. Subjects with advanced malignant tumors were administered capsules containing RX-3117 at daily doses of 30 mg (N=1), 60 mg (N=1), 100 mg (N=3), 150 mg (N=3), 200 mg (N=3), 500 mg (N=3), 1000 mg (N=3), 1500 mg (N=4), and 2000 mg (N=5 to date) 3 times a week (TIWK) for 3 weeks with 1 week off during each 4 week cycle. Based on the continued safety profile, and to enhance weekly RX-3117 exposure, more frequent dosing was also implemented. In addition to the TIWK dosing scheme discussed above, subjects also received 500 mg and 700 mg 5 times a week, and 500 mg for 7 times a week for 3 weeks with 1 week off during each 4 week cycle. Dose escalation began with an accelerated design treating 1 subject per dose (Simon et al., J Natl. Cancer Inst., 89(15):1138-47 (1997) followed by a standard 3+3 design using a modified Fibonacci sequence after the occurrence of a single related Grade 2 or greater adverse event. Table 3 summarizes the dosing schedule.
The efficacy, safety and tolerability of RX-3117 at various doses and frequencies were evaluated (see Example 4, above). Subjects with advanced malignant tumors were administered capsules containing RX-3117 at various doses, from TIWK to 7 times per week for 3 weeks with 1 week off during each 4-week cycle. Dose escalation begins with an accelerated design treating 1 subject per dose (Simon et al., J. Natl. Cancer Inst., 89(15):1138-47 (1997) followed by a standard 3+3 design using a modified Fibonacci sequence after the occurrence of a single related Grade 2 or greater adverse event. Table 4 (above) summarizes the dosing schedule.

Question: Which results are given for Nc1ccn([C@@H]2C(F)=C(CO)[C@@H](O)[C@H]2O)c(=O)n1 [RX-3117, 4-amino-1-((1S,4R,5S)-2-fluoro-4,5-dihydroxy-3-hydroxymethyl-cyclopent-2-enyl)-1H-pyrimidin-2-one]?
Answer: dose modifying factors [1]: 1.4-1.8; maximum tolerated dose (MTD) ([2]; 5 days per week, three weeks with 1 week off per 4-week cycle): 700 mg daily; maximal tolerated dose ([2]; Phase I clinical study, as stated in Example 7): higher than 2,000 mg/day; apparent terminal T1/2, mean values ([2]; human, in vivo): 12.3 to 20.2 h; dose limiting toxicities ([2]; human, in vivo): Grade 3 anemia, thrombocytopenia; share of AUC0-t (0-24 hours) observed in the first 8 hours ([2]; human, in vivo): about half; share of AUC observed by 24 hours ([2]; human, in vivo): over 80%; half-life ([2]; human, in vivo, apparent terminal T1/2, mean values): 11.6 to 16.7 h; Tmax ([2]; human, in vivo, po, 30 mg, Tmax): 2 h; AUC0-24 ([2]; human, in vivo, po, 60 mg): 1164 ng·h/mL; Cmax ([2]; human, in vivo, po, 60 mg): 139 ng/mL; T1/2 ([2]; human, in vivo, po, 60 mg): 16.2 h; AUC(0-t) ([2]; human, in vivo, po, 60 mg): 1570 ng·h/mL; Cmax ([2]; human, in vivo, po, 60 mg, Cmax): 113 ng/mL; half-life ([2]; human, in vivo, po, 60 mg, T1/2): 15.7 h; Tmax ([2]; human, in vivo, po, 60 mg, Tmax): 4 h; AUC0-24 ([2]; human, in vivo, po, 100 mg): 2714 ng·h/mL; Cmax ([2]; human, in vivo, po, 100 mg): 357 ng/mL; T1/2 ([2]; human, in vivo, po, 100 mg): 15.4 h; AUC(0-t) ([2]; human, in vivo, po, 100 mg): 3290 ng·h/mL; Cmax ([2]; human, in vivo, po, 100 mg, Cmax): 460 ng/mL; half-life ([2]; human, in vivo, po, 100 mg, T1/2): 20.2 h; Tmax ([2]; human, in vivo, po, 100 mg, Tmax): 2 h; AUC0-24 ([2]; human, in vivo, po, 150 mg): 2437 ng·h/mL; Cmax ([2]; human, in vivo, po, 150 mg): 360 ng/mL; T1/2 ([2]; human, in vivo, po, 150 mg): 15.1 h; AUC(0-t) ([2]; human, in vivo, po, 150 mg): 3550 ng·h/mL; Cmax ([2]; human, in vivo, po, 150 mg, Cmax): 511 ng/mL; half-life ([2]; human, in vivo, po, 150 mg, T1/2): 13.9 h; Tmax ([2]; human, in vivo, po, 150 mg, Tmax): 3 h; AUC0-24 ([2]; human, in vivo, po, 200 mg): 4574 ng·h/mL; Cmax ([2]; human, in vivo, po, 200 mg): 643 ng/mL; T1/2 ([2]; human, in vivo, po, 200 mg): 16.2 h; AUC(0-t) ([2]; human, in vivo, po, 200 mg): 4720 ng·h/mL; Cmax ([2]; human, in vivo, po, 200 mg, Cmax): 637 ng/mL; half-life ([2]; human, in vivo, po, 200 mg, T1/2): 13.3 h; Tmax ([2]; human, in vivo, po, 200 mg, Tmax): 2 h; Tmax ([2]; human, in vivo, po, 500 mg): 2.5 h; AUC(0-t) ([2]; human, in vivo, po, 500 mg): 7920 ng·h/mL; Cmax ([2]; human, in vivo, po, 500 mg, Cmax): 1100 ng/mL; Tmax ([2]; human, in vivo, po, 500 mg, Tmax): 2 h; AUC0-24 ([2]; human, in vivo, po, 700 mg): 6321 ng·h/mL; Cmax ([2]; human, in vivo, po, 700 mg): 674 ng/mL; T1/2 ([2]; human, in vivo, po, 700 mg): 11.2 h; AUC(0-t) ([2]; human, in vivo, po, 700 mg): 8660 ng·h/mL; Cmax ([2]; human, in vivo, po, 700 mg, Cmax): 989 ng/mL; half-life ([2]; human, in vivo, po, 700 mg, T1/2): 9.05 h; Tmax ([2]; human, in vivo, po, 700 mg, Tmax): 3 h; AUC0-24 ([2]; human, in vivo, po, 1000 mg): 9753 ng·h/mL; Cmax ([2]; human, in vivo, po, 1000 mg): 1210 ng/mL; T1/2 ([2]; human, in vivo, po, 1000 mg): 14.9 h; AUC(0-t) ([2]; human, in vivo, po, 1000 mg): 12200 ng·h/mL; Cmax ([2]; human, in vivo, po, 1000 mg, Cmax): 1640 ng/mL; half-life ([2]; human, in vivo, po, 1000 mg, T1/2): 11.6 h; Tmax ([2]; human, in vivo, po, 1000 mg, Tmax): 2 h; Cmax ([2]; human, in vivo, po, 1500 mg): 883 ng/mL; T1/2 ([2]; human, in vivo, po, 1500 mg): 13.8 h; Cmax ([2]; human, in vivo, po, 1500 mg, Cmax): 1620 ng/mL; half-life ([2]; human, in vivo, po, 1500 mg, T1/2): 11.8 h; Tmax ([2]; human, in vivo, po, 1500 mg, Tmax): 3 h; AUC0-24 ([2]; human, in vivo, po, 2000 mg): 17403 ng·h/mL; Cmax ([2]; human, in vivo, po, 2000 mg): 1703 ng/mL; T1/2 ([2]; human, in vivo, po, 2000 mg): 12.1 h; AUC(0-t) ([2]; human, in vivo, po, 2000 mg): 17000 ng·h/mL; Cmax ([2]; human, in vivo, po, 2000 mg, Cmax): 1860 ng/mL; half-life ([2]; human, in vivo, po, 2000 mg, T1/2): 13.3 h; Tmax ([2]; human, in vivo, po, 2000 mg, Tmax): 3 h; Tmax ([2]; human, in vivo, po, median Tmax): 2 to 3 h; accumulation ([2]; in vivo): generally minimal; most frequent related adverse events ([2]; in vivo): moderate to severe anemia, mild to moderate fatigue and nausea, mild diarrhea, vomiting, and anorexia; most frequently observed adverse events ([2]; in vivo): mild to moderate fatigue and nausea, mild diarrhea, mild vomiting, mild anorexia and moderate dehydration
